Test results: patent US12502384B2, “Pharmaceutical composition containing nitroxoline prodrug, and preparation method and application therefor” (Jiangsu Yahong Meditech Co., Ltd., priority 2020, dated 2025)

Assay: Stability test: impurity content by HPLC (self-control)
Format: physicochemical
Details: for Impurity (%)/RRT relative retention time 0.71 / Impurity (%)/RRT relative retention time 0.78 / Impurity (%)/RRT relative retention time 0.83 / Impurity (%)/RRT relative retention time 0.89 / Impurity (%)/RRT relative retention time 0.9 / Impurity (%)/RRT relative retention time 1.06 / Impurity (%)/RRT relative retention time 1.95 / Impurity (%)/RRT relative retention time 0.93 / Impurity (%)/RRT relative retention time 1.97: — = not detected
Protocol: The impurity content of the immediate-release tablets obtained in Examples 1, 3, and 8 was determined respectively to evaluate the stability, and the steps were as follows:
1. Preparation Method for Test Solution I and Test Solution II
About 25 mg of a batch of nitroxoline prodrug was added to a 50 mL volumetric flask, followed by the addition of about 30 mL of acetonitrile. The resulting solution was ultrasonicated for 10 minutes, cooled to room temperature, diluted with acetonitrile to the constant volume, and mixed well. An appropriate amount of the above solution was filtered to obtain test solution I.
According to the above method, another batch of nitroxoline prodrug was used to obtain test solution II.
Test solution I was used to study the impurity content under normal temperature and different storage times (0 h, 6 h, 12 h, 18 h, 24 h), and the impurity content under 2 to 8° C. and a storage time of 24 hours.
Test solution II was used to study the impurity content under two different stability conditions (intermediate condition of 30° C./65% RH and accelerated condition of 40° C./75% RH, as shown in Table 2).
2. […]
3. Preparation Method for 0.2% Self-Control Solution
2 mL of test solution I, test solution II or test solution III was added to a 100 mL volumetric flask, and diluted with acetonitrile to the constant volume. 1 mL of the resulting solution was added to a 10 mL volumetric flask, diluted with acetonitrile to the constant volume, and mixed well to obtain the desired solution.
4. Determination of Impurity Content
(§1) Test solution I was placed at room temperature, and samples were collected respectively at 0 h, 6 h, 12 h, 18 h, 24 h. 0.2% self-control solution was formulated. Samples were injected respectively, and the single impurity content and total impurity content in test solution I at each time point were calculated according to the self-control.
as §1, with “in a refrigerator (2 to 8° C.),” for “at room temperature,”, “collected” for “collected respectively”, “at” for “at 0 h, 6 h, 12 h, 18 h,”, “this” for “each”
Samples were collected from Test solution II at 0 day, at one month under the intermediate condition (30° C./65% RH) and at one month under the accelerated condition (40° C./75% RH). 0.2% self-control solution was formulated. Samples were injected respectively, and the single impurity content and total impurity content in test solution II at this time point were calculated according to the self-control. […]

[1] = Accelerated condition (40° C./75% RH) one month
[2] = Intermediate condition (30° C./65% RH) one month

Total impurity (%) [1]: 1.038%
Impurity (%)/RRT relative retention time 0.71 [1]: 0.005%
Impurity (%)/RRT relative retention time 0.78 [1]: 0.792%
Impurity (%)/RRT relative retention time 0.83 [1]: 0.02%
Impurity (%)/RRT relative retention time 0.89 [1]: 0.018%
Impurity (%)/RRT relative retention time 0.9 [1]: 0.012%
Impurity (%)/RRT relative retention time 1.06 [1]: 0.173%
Impurity (%)/RRT relative retention time 1.95 [1]: 0.018%
Total impurity (%) [2]: 0.333%
Impurity (%)/RRT relative retention time 0.78 [2]: 0.117%
Impurity (%)/RRT relative retention time 0.89 [2]: 0.018%
Impurity (%)/RRT relative retention time 0.9 [2]: 0.011%
Impurity (%)/RRT relative retention time 1.06 [2]: 0.169%
Impurity (%)/RRT relative retention time 1.95 [2]: 0.018%
Total impurity (%) (Storage time 0 h(RT)): 0.192%
Impurity (%)/RRT relative retention time 0.89 (Storage time 0 h(RT)): 0.055%
Impurity (%)/RRT relative retention time 0.9 (Storage time 0 h(RT)): 0.055%
Impurity (%)/RRT relative retention time 0.93 (Storage time 0 h(RT)): 0.082%
Total impurity (%) (Storage time 0 day): 0.261%
Impurity (%)/RRT relative retention time 0.78 (Storage time 0 day): 0.042%
Impurity (%)/RRT relative retention time 0.89 (Storage time 0 day): 0.019%
Impurity (%)/RRT relative retention time 0.9 (Storage time 0 day): 0.011%
Impurity (%)/RRT relative retention time 1.06 (Storage time 0 day): 0.17%
Impurity (%)/RRT relative retention time 1.95 (Storage time 0 day): 0.019%
Total impurity (%) (Storage time 6 h(RT)): 0.739%
Impurity (%)/RRT relative retention time 0.71 (Storage time 6 h(RT)): 0.18%
Impurity (%)/RRT relative retention time 0.89 (Storage time 6 h(RT)): 0.059%
Impurity (%)/RRT relative retention time 0.9 (Storage time 6 h(RT)): 0.069%
Impurity (%)/RRT relative retention time 0.93 (Storage time 6 h(RT)): 0.091%
Impurity (%)/RRT relative retention time 1.95 (Storage time 6 h(RT)): 0.089%
Impurity (%)/RRT relative retention time 1.97 (Storage time 6 h(RT)): 0.251%
Total impurity (%) (Storage time 12 h(RT)): 0.733%
Impurity (%)/RRT relative retention time 0.71 (Storage time 12 h(RT)): 0.176%
Impurity (%)/RRT relative retention time 0.89 (Storage time 12 h(RT)): 0.053%
Impurity (%)/RRT relative retention time 0.9 (Storage time 12 h(RT)): 0.063%
Impurity (%)/RRT relative retention time 0.93 (Storage time 12 h(RT)): 0.092%
Impurity (%)/RRT relative retention time 1.95 (Storage time 12 h(RT)): 0.093%
Impurity (%)/RRT relative retention time 1.97 (Storage time 12 h(RT)): 0.256%
Total impurity (%) (Storage time 18 h(RT)): 1.035%
Impurity (%)/RRT relative retention time 0.71 (Storage time 18 h(RT)): 0.174%
Impurity (%)/RRT relative retention time 0.83 (Storage time 18 h(RT)): 0.377%
Impurity (%)/RRT relative retention time 0.89 (Storage time 18 h(RT)): 0.054%
Impurity (%)/RRT relative retention time 0.9 (Storage time 18 h(RT)): 0.057%
Impurity (%)/RRT relative retention time 0.93 (Storage time 18 h(RT)): 0.092%
Impurity (%)/RRT relative retention time 1.95 (Storage time 18 h(RT)): 0.065%
Impurity (%)/RRT relative retention time 1.97 (Storage time 18 h(RT)): 0.216%
Total impurity (%) (Storage time 24 h(2-8° C.)): 0.608%
Impurity (%)/RRT relative retention time 0.71 (Storage time 24 h(2-8° C.)): 0.175%
Impurity (%)/RRT relative retention time 0.83 (Storage time 24 h(2-8° C.)): 0.189%
Impurity (%)/RRT relative retention time 0.89 (Storage time 24 h(2-8° C.)): 0.053%
Impurity (%)/RRT relative retention time 0.9 (Storage time 24 h(2-8° C.)): 0.064%
Impurity (%)/RRT relative retention time 0.93 (Storage time 24 h(2-8° C.)): 0.088%
Impurity (%)/RRT relative retention time 1.06 (Storage time 24 h(2-8° C.)): 0.039%
Total impurity (%) (Storage time 24 h(RT)): 1.254%
Impurity (%)/RRT relative retention time 0.71 (Storage time 24 h(RT)): 0.177%
Impurity (%)/RRT relative retention time 0.83 (Storage time 24 h(RT)): 0.524%
Impurity (%)/RRT relative retention time 0.89 (Storage time 24 h(RT)): 0.054%
Impurity (%)/RRT relative retention time 0.9 (Storage time 24 h(RT)): 0.053%
Impurity (%)/RRT relative retention time 0.93 (Storage time 24 h(RT)): 0.09%
Impurity (%)/RRT relative retention time 1.95 (Storage time 24 h(RT)): 0.097%
Impurity (%)/RRT relative retention time 1.97 (Storage time 24 h(RT)): 0.259%
SMILES: CC(C)C(=O)N1CCC[C@H]1C(=O)OCOc1ccc([N+](=O)[O-])c2cccnc12 [nitroxoline prodrug, (S)-(5-nitroquinolin-8-yloxy)methyl 1-isopropionylpyrrolidine-2-carboxylate]
